# Source: ChEMBL document CHEMBL5376020, “Synthesis and evaluation of WK-X-34 derivatives as P-glycoprotein (P-gp/ABCB1) inhibitors for reversing multidrug resistance” (RSC Med Chem, 2024)
# pIC50: −log10 of the molar value. Active and inactive are the calls of the source. The rule behind the calls is not given here.
# Key:
# [1] = Octanol/water partition coefficient, log P of the compound; format: physicochemical
# [2] = tested on: SW-620; experiment: Cytotoxicity against human SW620 cells assessed as cell mortality rate at 5 uM measured after 48 hrs by CCK-8 method relative to control; format: functional
# [3] = tested on: SW620/AD300; experiment: Reversal fold, ratio of Doxorubicin IC50 to test compound IC50 for reversal of doxorubicin-induced multi-drug resistance in human SW620/AD300 cells measured after 48 hrs by CCK-8 method; format: functional
# [4] = tested on: SW-620; experiment: Reversal of doxorubicin-induced multidrug resistance in human SW620 cells measured after 48 hrs by CCK-8 method; format: functional, cell-based; conditions: SW-620, 48 h
# [5] = tested on: SW620/AD300; experiment: Reversal of doxorubicin-induced multidrug resistance in human SW620/AD300 cells measured after 48 hrs by CCK-8 method; format: functional, cell-based; conditions: SW620/AD300, 48 h
# [6] = tested on: SW620/AD300; experiment: Cytotoxicity against human overexpressing P-gp SW620/AD300 cells assessed as cell mortality rate at 5 uM measured after 48 hrs by CCK-8 method relative to control; format: functional
# [7] = tested on: SW-620; experiment: Reversal fold, ratio of Doxorubicin IC50 to test compound IC50 for reversal of doxorubicin-induced multi-drug resistance in human SW620 cells measured after 48 hrs by CCK-8 method; format: functional
# [8] = tested on: SW620/AD300; experiment: Induction of doxorubicin induced apoptosis in human SW620/AD300 cells assessed as necrotic cells at 2.5 uM incubated for 48 hrs in presence of doxorubicin by annexin V-FITC and PI staining based flow cytometry analysis (reference value: 0.59%); format: functional
# [9] = tested on: SW620/AD300; experiment: Induction of doxorubicin induced apoptosis in human SW620/AD300 cells assessed as late apoptotic cells at 2.5 uM incubated for 48 hrs in presence of doxorubicin by annexin V-FITC and PI staining based flow cytometry analysis (reference value: 2.07%); format: functional
# [10] = tested on: SW620/AD300; experiment: Induction of doxorubicin induced apoptosis in human SW620/AD300 cells assessed as early apoptotic cells at 5 uM incubated for 48 hrs in presence of doxorubicin by annexin V-FITC and PI staining based flow cytometry analysis (reference value: 4.55%); format: functional
# [11] = tested on: SW620/AD300; experiment: Induction of doxorubicin induced apoptosis in human SW620/AD300 cells assessed as early apoptotic cells at 2.5 uM incubated for 48 hrs in presence of doxorubicin by annexin V-FITC and PI staining based flow cytometry analysis (reference value: 4.55%); format: functional
# [12] = tested on: SW620/AD300; experiment: Induction of doxorubicin induced apoptosis in human SW620/AD300 cells assessed as late apoptotic cells at 5 uM incubated for 48 hrs in presence of doxorubicin by annexin V-FITC and PI staining based flow cytometry analysis (reference value: 2.07%); format: functional
# [13] = tested on: SW620/AD300; experiment: Downregulation of P-gp expression level in human SW620/AD300 cells at 2 to 5 uM measured after 24 hrs by qPCR analysis; format: functional, cell-based; conditions: dose 2-5 µM
# [14] = tested on: SW620/AD300; experiment: Induction of doxorubicin induced apoptosis in human SW620/AD300 cells assessed as necrotic cells at 5 uM incubated for 48 hrs in presence of doxorubicin by annexin V-FITC and PI staining based flow cytometry analysis (reference value: 0.59%); format: functional
# [15] = tested on: SW620/AD300; experiment: Induction of doxorubicin induced apoptosis in human SW620/AD300 cells assessed as viable cells at 2.5 uM incubated for 48 hrs in presence of doxorubicin by annexin V-FITC and PI staining based flow cytometry analysis (reference value: 92.8%); format: functional; conditions: read-out: Activity
# [16] = tested on: SW620/AD300; experiment: Downregulation of P-gp expression level in human SW620/AD300 cells at 5 to 10 uM measured after 24 hrs by Western blot analysis; format: functional, cell-based; conditions: dose 5-10 µM
# [17] = tested on: SW620/AD300; experiment: Induction of doxorubicin induced apoptosis in human SW620/AD300 cells assessed as viable cells at 5 uM incubated for 48 hrs in presence of doxorubicin by annexin V-FITC and PI staining based flow cytometry analysis (reference value: 92.8%); format: functional; conditions: read-out: Activity
# [18] = target: ATP-dependent translocase ABCB1 (Homo sapiens, UniProt P08183); experiment: Inhibition of P-gp efflux in human SW620/AD300 cells assessed as increase in accumulation of Rh123 by measuring fluorescence intensity at 5.0 uM incubated for 4 hrs followed by Rh123 addition measured after 30 mins by flow cytometric analysis; format: cell-based; conditions: sw620/ad300, 4.5 h
# Sequence of ATP-dependent translocase ABCB1 (P08183 whole entry): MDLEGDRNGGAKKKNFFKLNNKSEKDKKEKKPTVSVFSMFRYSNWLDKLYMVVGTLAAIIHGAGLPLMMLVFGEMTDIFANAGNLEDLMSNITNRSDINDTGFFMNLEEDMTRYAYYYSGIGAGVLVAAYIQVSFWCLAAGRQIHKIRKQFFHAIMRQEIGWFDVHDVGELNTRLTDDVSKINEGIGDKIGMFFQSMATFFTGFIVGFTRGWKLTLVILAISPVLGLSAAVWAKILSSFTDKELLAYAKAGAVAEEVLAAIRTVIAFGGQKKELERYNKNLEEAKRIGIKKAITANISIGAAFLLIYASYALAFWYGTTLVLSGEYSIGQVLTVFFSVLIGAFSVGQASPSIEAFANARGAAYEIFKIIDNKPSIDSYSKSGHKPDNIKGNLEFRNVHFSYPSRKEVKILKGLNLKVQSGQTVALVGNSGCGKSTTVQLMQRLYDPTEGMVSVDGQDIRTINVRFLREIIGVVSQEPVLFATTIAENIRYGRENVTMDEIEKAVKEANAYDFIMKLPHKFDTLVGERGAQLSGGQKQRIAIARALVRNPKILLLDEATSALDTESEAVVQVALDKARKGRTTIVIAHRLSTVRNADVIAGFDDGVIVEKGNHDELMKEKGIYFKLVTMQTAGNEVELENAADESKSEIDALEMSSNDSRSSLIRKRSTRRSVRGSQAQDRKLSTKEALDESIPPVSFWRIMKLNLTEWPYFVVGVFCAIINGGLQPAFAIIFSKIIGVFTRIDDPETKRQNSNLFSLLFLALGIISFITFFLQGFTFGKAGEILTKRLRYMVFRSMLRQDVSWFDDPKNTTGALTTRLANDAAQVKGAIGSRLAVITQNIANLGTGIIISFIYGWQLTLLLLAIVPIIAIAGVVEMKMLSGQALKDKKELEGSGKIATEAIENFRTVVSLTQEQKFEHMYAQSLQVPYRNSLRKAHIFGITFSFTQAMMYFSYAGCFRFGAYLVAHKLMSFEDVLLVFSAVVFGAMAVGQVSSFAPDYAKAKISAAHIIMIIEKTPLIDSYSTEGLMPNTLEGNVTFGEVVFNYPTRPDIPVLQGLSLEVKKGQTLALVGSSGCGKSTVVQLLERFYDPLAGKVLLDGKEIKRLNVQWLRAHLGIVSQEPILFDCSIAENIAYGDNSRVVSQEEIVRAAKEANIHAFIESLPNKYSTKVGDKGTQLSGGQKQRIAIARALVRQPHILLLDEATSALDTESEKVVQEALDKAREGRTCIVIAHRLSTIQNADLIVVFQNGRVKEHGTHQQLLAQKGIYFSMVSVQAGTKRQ
# [19] = tested on: SW620/AD300; experiment: Downregulation of P-gp expression level in human SW620/AD300 cells at upto 50 uM measured after 24 hrs by Western blot analysis; format: functional, cell-based
Structure (SMILES),logP [1],mortality at 5 µM [2],Ratio IC50 [3],pIC50 [4],pIC50 [5],mortality at 5 µM [6],Ratio IC50 [7],Activity [8],Activity [9],Activity [10],Activity [11],Activity [12],Activity [13],Activity [14],viability at 2.5 µM [15],Activity [16],viability at 5 µM [17],inhibition (INH) [18],Activity [19]
COc1cc2c(cc1OC)CN(CCc1ccc(NC(=O)c3ccccc3NC(=O)CCNC(=O)CC34CC5CC(CC(C5)C3)C4)cc1)CC2,6.89,< 6%,27.7,6.47,6.42,< 6%,0.7,,,,,,,,,,,,
COc1cc2c(cc1OC)CN(CCc1ccc(NC(=O)c3ccccc3NC(=O)c3ccc(C(=O)N4CCN(C(=O)CC56CC7CC(CC(C7)C5)C6)CC4)cc3)cc1)CC2,8.04,< 2%,78.6,6.86,6.87,< 2%,1.9,0.22%,1.16%,52.1%,50.8%,5.15%,inactive,1.17%,47.8%,inactive,42.1%,Active,inactive
COc1cc2c(cc1OC)CN(CCc1ccc(NC(=O)c3ccccc3NC(=O)c3ccccc3N)cc1)CC2,5.78,,14.6,6.64,6.14,,1.1,,,,,,,,,,,,
COc1cccc2c1C(=O)c1c(O)c3c(c(O)c1C2=O)C[C@@](O)(C(=O)CO)C[C@@H]3O[C@H]1C[C@H](N)[C@H](O)[C@H](C)O1 [DOXORUBICIN],,,1,6.59,4.98,,1,,,,,,,,,,,,
COc1ccc(C(=O)Nc2ccccc2C(=O)Nc2ccc(CCN3CCc4cc(OC)c(OC)cc4C3)cc2)cc1OC,5.85,9%,45.9,7.20,6.65,9%,4,,,38.5%,,3.62%,,0.56%,,,57.3%,Active,
COc1cc2c(cc1OC)CN(CCc1ccc(NC(=O)c3ccccc3NC(=O)CC34CC5CC(CC(C5)C3)C4)cc1)CC2,7.65,< 2%,51.4,6.55,6.69,< 2%,0.9,0.29%,3.15%,24.7%,17.7%,3.93%,inactive,1.13%,78.9%,inactive,70.2%,Active,inactive
COc1cc2c(cc1OC)CN(CCc1ccc(NC(=O)c3ccccc3NC(=O)C34CC5CC(CC(C5)C3)C4)cc1)CC2,6.83,< 2%,15.7,6.84,6.17,< 2%,1.8,0.08%,0.96%,36.1%,22.7%,4.45%,inactive,0.29%,76.3%,inactive,59.2%,Active,Active
COc1ccc(CCN(C)CCCC(C#N)(c2ccc(OC)c(OC)c2)C(C)C)cc1OC (stereo not given) [VERAPAMIL],,,,6.85,,,,,,,,,,,,,,,
COc1cc2c(cc1OC)CN(CCc1ccc(NC(=O)c3ccccc3NC(=O)c3ccc(N)cc3)cc1)CC2,5.23,,15.9,6.76,6.18,,1.5,,,,,,,,,,,,
COc1cc2c(cc1OC)CN(CCc1ccc(NC(=O)c3ccccc3NC(=O)c3ccc(C(=O)O)cc3)cc1)CC2,3.16,,1.4,6.42,5.12,,0.7,,,,,,,,,,,,
COc1cc2c(cc1OC)CN(CCc1ccc(NC(=O)c3ccccc3NC(=O)c3ccc(C(=O)NCCNC(=O)CC45CC6CC(CC(C6)C4)C5)cc3)cc1)CC2,7.9,< 6%,13,6.86,6.09,< 6%,1.8,,,,,,,,,,,,
COc1cc2c(cc1OC)CN(CCc1ccc(NC(=O)c3ccccc3NC(=O)c3ccc(NC(=O)CC45CC6CC(CC(C6)C4)C5)cc3)cc1)CC2,8.48,< 6%,21.1,6.31,6.30,< 6%,0.5,,,,,,,,,,,,
COC(=O)c1ccc(C(=O)Nc2ccccc2C(=O)Nc2ccc(CCN3CCc4cc(OC)c(OC)cc4C3)cc2)cc1,5.77,,10.4,6.87,6.00,,1.9,,,,,,,,,,,,
